The values below come from article PMC3640428 (Journal of the American Chemical Society, 2013).

The assay addresses T1, T. thermophilus GluRS (glutamyl-tRNA synthetase) (Thermus thermophilus, UniProt P27000).
T1 sequence (P27000 1-468): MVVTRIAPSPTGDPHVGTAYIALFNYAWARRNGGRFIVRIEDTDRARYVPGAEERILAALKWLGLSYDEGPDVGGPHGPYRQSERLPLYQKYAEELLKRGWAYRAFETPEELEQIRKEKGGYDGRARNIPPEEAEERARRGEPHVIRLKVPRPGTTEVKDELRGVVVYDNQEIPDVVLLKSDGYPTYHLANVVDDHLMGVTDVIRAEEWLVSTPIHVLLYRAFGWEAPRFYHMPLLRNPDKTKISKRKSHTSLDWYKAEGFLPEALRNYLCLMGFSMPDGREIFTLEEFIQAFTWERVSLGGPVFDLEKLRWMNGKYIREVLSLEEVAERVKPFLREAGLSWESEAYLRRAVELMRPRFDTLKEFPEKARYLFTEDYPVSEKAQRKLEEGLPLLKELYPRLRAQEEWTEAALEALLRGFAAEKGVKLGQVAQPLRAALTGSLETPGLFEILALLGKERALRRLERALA
Description: intrinsic tryptophan fluorescence titration. It counts as binding.

With `Nc1ncnc2c1ncn2[C@@H]1O[C@H](COP(=O)(O)OP(=O)(O)OP(=O)(O)O)[C@@H](O)[C@H]1O` [ATP], the affinity, expressed as Kd, was 50 ± 12 µM.

One may read the Kd as the constant that tells how readily two partners part at equilibrium. High values mean weaker binding, low ones tighter binding.
